Results published in ChEMBL document CHEMBL5137042, “Tetrahydropyridin-4-ylpicolinoylglycines as novel and orally active prolyl hydroxylase 2 (PHD2) inhibitors for the treatment of renal anemia” (Eur J Med Chem, 2022).
The source made the active and inactive calls. The calls are words filed in the database; no cut-off is given here.

Key:
Egl nine homolog 1 = Egl nine homolog 1 (Homo sapiens, UniProt Q9GZT9); assay: Inhibition of PHD2 (181 to 426 residue) (unknown origin) measured by fluorescence polarization assay
Chain of Egl nine homolog 1 (Q9GZT9 whole entry): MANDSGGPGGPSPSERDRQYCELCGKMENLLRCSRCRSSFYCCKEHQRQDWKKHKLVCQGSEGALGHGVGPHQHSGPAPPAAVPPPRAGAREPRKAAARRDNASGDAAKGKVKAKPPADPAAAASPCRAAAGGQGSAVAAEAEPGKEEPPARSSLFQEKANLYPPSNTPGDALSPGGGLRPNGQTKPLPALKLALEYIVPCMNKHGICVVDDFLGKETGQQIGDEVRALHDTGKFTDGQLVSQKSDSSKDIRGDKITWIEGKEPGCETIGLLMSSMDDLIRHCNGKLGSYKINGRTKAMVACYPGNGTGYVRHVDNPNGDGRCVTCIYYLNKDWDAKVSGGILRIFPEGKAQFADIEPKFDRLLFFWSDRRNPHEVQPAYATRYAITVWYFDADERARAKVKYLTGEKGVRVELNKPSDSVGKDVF

Mus musculus [1] = assay: Induction of reticulocytes production in C57BL/6 mouse at 20 mg/kg, po measured at day 3 and 3 days post-dose; type: functional, organism-based; conditions: time 3.0 day
[2] = Cytotoxicity against human Hep3B cells assessed as cell viability at 100 uM incubated for 24 hrs by CCK8 assay relative to control; type: toxicity, cell-based, Hep 3B2; conditions: read-out: Activity
[3] = Hepatotoxicity in ICR mouse assessed as effect on ALT level at 15 to 100 mg/kg, po administered every other day and measured after 14 days; type: toxicity, organism-based; conditions: in vivo, 336 h, dose 15-100 mg/kg, time 14 day
[4] = Toxicity in male ICR mouse assessed as change in spleen to body weight ratio at 15 to 100 mg/kg, po administered every other day and measured after 14 days; type: organism-based; conditions: in vivo, 336 h, dose 15-100 mg/kg, time 14 day
[5] = Toxicity in male ICR mouse assessed as change in lung to body weight ratio at 15 to 100 mg/kg, po administered every other day and measured after 14 days; type: organism-based; conditions: in vivo, 336 h, dose 15-100 mg/kg, time 14 day
[6] = Toxicity in male ICR mouse assessed as change in liver to body weight ratio at 15 to 100 mg/kg, po administered every other day and measured after 14 days; type: organism-based; conditions: in vivo, 336 h, dose 15-100 mg/kg, time 14 day
[7] = Hepatotoxicity in ICR mouse assessed as effect on […] level at 15 to 100 mg/kg, po administered every other day and measured after 14 days; type: toxicity, organism-based; conditions: in vivo, 336 h, dose 15-100 mg/kg, time 14 day
[8] = Toxicity in female ICR mouse assessed as change in lung to body weight ratio at 15 to 100 mg/kg, po administered every other day and measured after 14 days; type: organism-based; conditions: in vivo, 336 h, dose 15-100 mg/kg, time 14 day
[9] = Toxicity in female ICR mouse assessed as change in liver to body weight ratio at 15 to 100 mg/kg, po administered every other day and measured after 14 days; type: organism-based; conditions: in vivo, 336 h, dose 15-100 mg/kg, time 14 day
[10] = Toxicity in female ICR mouse assessed as change in spleen to body weight ratio at 15 to 100 mg/kg, po administered every other day and measured after 14 days; type: organism-based; conditions: in vivo, 336 h, dose 15-100 mg/kg, time 14 day
[11] = Renal toxicity in ICR mouse assessed as effect on […] level at 15 to 100 mg/kg, po administered every other day and measured after 14 days; type: organism-based; conditions: in vivo, 336 h, dose 15-100 mg/kg, time 14 day
[12] = Toxicity in ICR mouse assessed as liver edema at 15 to 100 mg/kg, po administered every other day and measured after 14 days by H and E staining method; type: organism-based; conditions: in vivo, 336 h, dose 15-100 mg/kg, time 14 day
Mus musculus [13] = assay: Induction of reticulocytes production in po dosed C57BL/6 mouse measured at day 3 and 3 days post-dose; type: functional, organism-based; conditions: dose 10-50 mg/kg, time 3.0 day, DDE = dose-dependent effect
[14] = Toxicity in ICR mouse assessed as lung edema at 15 to 100 mg/kg, po administered every other day and measured after 14 days by H and E staining method; type: organism-based; conditions: in vivo, 336 h, dose 15-100 mg/kg, time 14 day
[15] = Toxicity in ICR mouse assessed as heart edema at 15 to 100 mg/kg, po administered every other day and measured after 14 days by H and E staining method; type: organism-based; conditions: in vivo, 336 h, dose 15-100 mg/kg, time 14 day
[16] = Toxicity in female ICR mouse assessed as change in heart to body weight ratio at 15 to 100 mg/kg, po administered every other day and measured after 14 days; type: organism-based; conditions: in vivo, 336 h, dose 15-100 mg/kg, time 14 day
[17] = Toxicity in ICR mouse assessed as spleen edema at 15 to 100 mg/kg, po administered every other day and measured after 14 days by H and E staining method; type: organism-based; conditions: in vivo, 336 h, dose 15-100 mg/kg, time 14 day
[18] = Toxicity in ICR mouse assessed as increase in body weight at 15 to 100 mg/kg, po administered every other day and measured upto 14 days; type: organism-based; conditions: in vivo, 336 h, dose 15-100 mg/kg, time < 14 day
[19] = Toxicity in male ICR mouse assessed as change in heart to body weight ratio at 15 to 100 mg/kg, po administered every other day and measured after 14 days; type: organism-based; conditions: in vivo, 336 h, dose 15-100 mg/kg, time 14 day
[20] = Toxicity in ICR mouse assessed as kidney edema at 15 to 100 mg/kg, po administered every other day and measured after 14 days by H and E staining method; type: organism-based; conditions: in vivo, 336 h, dose 15-100 mg/kg, time 14 day
[21] = Toxicity in female ICR mouse assessed as change in kidney to body weight ratio at 15 to 100 mg/kg, po administered every other day and measured after 14 days; type: organism-based; conditions: in vivo, 336 h, dose 15-100 mg/kg, time 14 day
[22] = Renal toxicity in ICR mouse assessed as effect on BUN level at 15 to 100 mg/kg, po administered every other day and measured after 14 days; type: organism-based; conditions: in vivo, 336 h, dose 15-100 mg/kg, time 14 day
[23] = Toxicity in male ICR mouse assessed as change in kidney to body weight ratio at 15 to 100 mg/kg, po administered every other day and measured after 14 days; type: organism-based; conditions: in vivo, 336 h, dose 15-100 mg/kg, time 14 day
Hep3B = assay: Induction of HIF-alpha stabilization in human Hep3B cells assessed as fold increase in EPO transcriptional activity at 5 uM incubated for 12 hrs by qRT-PCR analysis; type: cell-based

SMILES: O=C(O)CNC(=O)c1ncc(C2=CCN(S(=O)(=O)c3ccccc3F)CC2)cc1O
- IC50 (Egl nine homolog 1): 82.8 nM

SMILES: Cc1ccc(S(=O)(=O)N2CC=C(c3cnc(C(=O)NCC(=O)O)c(O)c3)CC2)cc1
- IC50 (Egl nine homolog 1): 45.3 nM

SMILES: O=C(O)CNC(=O)c1ncc(C2=CCN(S(=O)(=O)Cc3ccc(F)cc3)CC2)cc1O
- Activity (Mus musculus [1]): Active
- IC50 (Egl nine homolog 1): 6.31 nM
- viability at 24 h, 100 µM [2]: > 80%

SMILES: O=C(O)CNC(=O)c1ncc(C2=CCN(S(=O)(=O)c3ccc(F)cc3)CC2)cc1O
- IC50 (Egl nine homolog 1): 43.5 nM

SMILES: O=C(O)CNC(=O)c1ncc(C2=CCN(S(=O)(=O)c3cccnc3)CC2)cc1O
- IC50 (Egl nine homolog 1): 51.2 nM

SMILES: O=C(O)CNC(=O)c1ncc(C2CCN(Cc3ccc(Cl)cc3)CC2)cc1O
- IC50 (Egl nine homolog 1): 588 nM

SMILES: O=C(O)CNC(=O)c1ncc(C2=CCN(S(=O)(=O)Cc3ccc(OC(F)(F)F)cc3)CC2)cc1O
- Activity [3]: Non-Toxic
- Activity [4]: Non-Toxic
- Activity [5]: Non-Toxic
- Activity [6]: Non-Toxic
- Activity [7]: Non-Toxic
- Activity [8]: Non-Toxic
- Activity [9]: Non-Toxic
- Activity [10]: Non-Toxic
- Activity [11]: Non-Toxic
- Activity [12]: Non-Toxic
- Activity (Mus musculus [13]): Dde
- Activity (Mus musculus [1]): Active
- Activity [14]: Non-Toxic
- Activity [15]: Non-Toxic
- Activity [16]: Non-Toxic
- Activity [17]: Non-Toxic
- IC50 (Egl nine homolog 1): 6.55 nM
- Activity [18]: Non-Toxic
- Activity [19]: Non-Toxic
- Activity [20]: Non-Toxic
- Activity [21]: Non-Toxic
- viability at 24 h, 100 µM [2]: > 80%
- Activity [22]: Non-Toxic
- Activity [23]: Non-Toxic

SMILES: O=C(O)CNC(=O)c1ncc(C2=CCN(S(=O)(=O)c3ccccc3)CC2)cc1O
- IC50 (Egl nine homolog 1): 132 nM

SMILES: O=C(O)CNC(=O)c1ncc(C2=CCN(S(=O)(=O)c3ccc4ccccc4c3)CC2)cc1O
- IC50 (Egl nine homolog 1): 97.4 nM

SMILES: O=C(O)CNC(=O)c1ncc(C2=CCN(S(=O)(=O)c3ccc(OC(F)(F)F)cc3)CC2)cc1O
- IC50 (Egl nine homolog 1): 50.9 nM

SMILES: O=C(O)CNC(=O)c1ncc(C2=CCN(S(=O)(=O)c3cccs3)CC2)cc1O
- IC50 (Egl nine homolog 1): 46.5 nM

SMILES: O=C(O)CNC(=O)c1ncc(C2=CCN(S(=O)(=O)c3cccc(F)c3)CC2)cc1O
- IC50 (Egl nine homolog 1): 141 nM

SMILES: O=C(O)CNC(=O)c1ncc(C2=CCN(S(=O)(=O)Cc3ccccc3)CC2)cc1O
- IC50 (Egl nine homolog 1): 18.2 nM

SMILES: N#Cc1ccc(S(=O)(=O)N2CC=C(c3cnc(C(=O)NCC(=O)O)c(O)c3)CC2)cc1
- IC50 (Egl nine homolog 1): 20.7 nM

SMILES: O=C(O)CNC(=O)c1ncc(C2=CCN(S(=O)(=O)c3ccc(Cl)cc3)CC2)cc1O
- IC50 (Egl nine homolog 1): 27 nM

SMILES: O=C(O)CNC(=O)c1ncc(C2=CCN(S(=O)(=O)Cc3ccc(C(F)(F)F)cc3)CC2)cc1O
- Activity (Mus musculus [1]): Active
- IC50 (Egl nine homolog 1): 7.97 nM
- viability at 24 h, 100 µM [2]: > 80%

SMILES: O=C(O)CNC(=O)c1ncc(C2=CCN(S(=O)(=O)c3ccc(Br)cc3)CC2)cc1O
- IC50 (Egl nine homolog 1): 29.7 nM

SMILES: O=C(O)CNC(=O)c1ncc(C2=CCN(S(=O)(=O)c3ccc(C(F)(F)F)cc3)CC2)cc1O
- IC50 (Egl nine homolog 1): 72.3 nM

SMILES: O=C(O)CNC(=O)c1ncc(C2=CCN(S(=O)(=O)Cc3ccc(Cl)cc3)CC2)cc1O
- Activity (Mus musculus [1]): Active
- IC50 (Egl nine homolog 1): 6.14 nM
- viability at 24 h, 100 µM [2]: > 80%

SMILES: O=C(O)CNC(=O)c1ncc(C2=CCN(S(=O)(=O)c3cccc4ccccc34)CC2)cc1O
- IC50 (Egl nine homolog 1): 22.4 nM

SMILES: O=C(O)CNC(=O)c1ncc(C2=CCN(S(=O)(=O)Cc3ccc(Br)cc3)CC2)cc1O
- Activity (Mus musculus [1]): Active
- IC50 (Egl nine homolog 1): 6.95 nM
- viability at 24 h, 100 µM [2]: > 80%
- FC (Hep3B): 2

SMILES: O=C(O)CNC(=O)c1ncc(C2=CCN(C(=O)c3ccc(Cl)cc3)CC2)cc1O
- IC50 (Egl nine homolog 1): 25 nM

SMILES: CC(C)(C)c1ccc(S(=O)(=O)N2CC=C(c3cnc(C(=O)NCC(=O)O)c(O)c3)CC2)cc1
- IC50 (Egl nine homolog 1): 796 nM

SMILES: O=C(O)CNC(=O)c1ncc(C2=CCN(C(=O)Nc3ccc(Cl)cc3)CC2)cc1O
- IC50 (Egl nine homolog 1): 27 nM

SMILES: O=C(O)CNC(=O)c1ncc(C2=CCN(Cc3ccc(Cl)cc3)CC2)cc1O
- IC50 (Egl nine homolog 1): 73.9 nM
